According to the NIST ThermoML archive (doi:10.1016/j.jct.2012.06.012):

Experiment: xn = mol fraction of the nth substance listed
Settings: Liquid, Vibrating tube method

CCCCCCCCCC [decane] + CCO
Settings	mass density [kg/m3]
352.7 K, 1000 kPa, x2 = 0.1011	683.33
352.7 K, 2000 kPa, x2 = 0.1011	684.45
352.7 K, 3000 kPa, x2 = 0.1011	685.55
352.7 K, 4000 kPa, x2 = 0.1011	686.65
352.7 K, 5000 kPa, x2 = 0.1011	687.72
352.7 K, 6000 kPa, x2 = 0.1011	688.78
352.7 K, 7000 kPa, x2 = 0.1011	689.84
352.7 K, 8000 kPa, x2 = 0.1011	690.9
352.7 K, 9000 kPa, x2 = 0.1011	691.94
352.7 K, 10000 kPa, x2 = 0.1011	692.96
352.7 K, 11000 kPa, x2 = 0.1011	693.98
352.7 K, 12000 kPa, x2 = 0.1011	695
352.7 K, 13000 kPa, x2 = 0.1011	695.99
352.7 K, 14000 kPa, x2 = 0.1011	696.97
352.7 K, 15000 kPa, x2 = 0.1011	697.93
352.7 K, 16000 kPa, x2 = 0.1011	698.88
352.7 K, 17000 kPa, x2 = 0.1011	699.83
352.7 K, 18000 kPa, x2 = 0.1011	700.74
352.7 K, 19000 kPa, x2 = 0.1011	701.63
352.7 K, 20000 kPa, x2 = 0.1011	702.51
352.76 K, 1000 kPa, x2 = 0.7526	702.43
352.76 K, 2000 kPa, x2 = 0.7526	703.63
352.76 K, 3000 kPa, x2 = 0.7526	704.82
352.76 K, 4000 kPa, x2 = 0.7526	706.01
352.76 K, 5000 kPa, x2 = 0.7526	707.19
352.76 K, 6000 kPa, x2 = 0.7526	708.35
352.76 K, 7000 kPa, x2 = 0.7526	709.51
352.76 K, 8000 kPa, x2 = 0.7526	710.66
352.76 K, 9000 kPa, x2 = 0.7526	711.8
352.76 K, 10000 kPa, x2 = 0.7526	712.92
352.76 K, 11000 kPa, x2 = 0.7526	714.03
352.76 K, 12000 kPa, x2 = 0.7526	715.12
352.76 K, 13000 kPa, x2 = 0.7526	716.21
352.76 K, 14000 kPa, x2 = 0.7526	717.27
352.76 K, 15000 kPa, x2 = 0.7526	718.31
352.76 K, 16000 kPa, x2 = 0.7526	719.35
352.76 K, 17000 kPa, x2 = 0.7526	720.36
352.76 K, 18000 kPa, x2 = 0.7526	721.35
352.76 K, 19000 kPa, x2 = 0.7526	722.32
352.76 K, 20000 kPa, x2 = 0.7526	723.29
352.85 K, 1000 kPa, x2 = 0.2507	684.78
352.85 K, 2000 kPa, x2 = 0.2507	685.92
352.85 K, 3000 kPa, x2 = 0.2507	687.03
352.85 K, 4000 kPa, x2 = 0.2507	688.14
352.85 K, 5000 kPa, x2 = 0.2507	689.24
352.85 K, 6000 kPa, x2 = 0.2507	690.33
352.85 K, 7000 kPa, x2 = 0.2507	691.41
352.85 K, 8000 kPa, x2 = 0.2507	692.48
352.85 K, 9000 kPa, x2 = 0.2507	693.55
352.85 K, 10000 kPa, x2 = 0.2507	694.61
352.85 K, 11000 kPa, x2 = 0.2507	695.65
352.85 K, 12000 kPa, x2 = 0.2507	696.68
352.85 K, 13000 kPa, x2 = 0.2507	697.7
352.85 K, 14000 kPa, x2 = 0.2507	698.7
352.85 K, 15000 kPa, x2 = 0.2507	699.68
352.85 K, 16000 kPa, x2 = 0.2507	700.65
352.85 K, 17000 kPa, x2 = 0.2507	701.61
352.85 K, 18000 kPa, x2 = 0.2507	702.54
352.85 K, 19000 kPa, x2 = 0.2507	703.46
352.85 K, 20000 kPa, x2 = 0.2507	704.34
362.64 K, 1000 kPa, x2 = 0.1011	675.19
362.64 K, 1000 kPa, x2 = 0.4963	680.64
362.64 K, 1000 kPa, x2 = 0.9014	707.28
362.64 K, 2000 kPa, x2 = 0.1011	676.37
362.64 K, 2000 kPa, x2 = 0.4963	681.93
362.64 K, 2000 kPa, x2 = 0.9014	708.6
362.64 K, 3000 kPa, x2 = 0.1011	677.53
362.64 K, 3000 kPa, x2 = 0.4963	683.18
362.64 K, 3000 kPa, x2 = 0.9014	709.92
362.64 K, 4000 kPa, x2 = 0.1011	678.69
362.64 K, 4000 kPa, x2 = 0.4963	684.42
362.64 K, 4000 kPa, x2 = 0.9014	711.21
362.64 K, 5000 kPa, x2 = 0.1011	679.84
362.64 K, 5000 kPa, x2 = 0.4963	685.66
362.64 K, 5000 kPa, x2 = 0.9014	712.52
362.64 K, 6000 kPa, x2 = 0.1011	680.98
362.64 K, 6000 kPa, x2 = 0.4963	686.87
362.64 K, 6000 kPa, x2 = 0.9014	713.8
362.64 K, 7000 kPa, x2 = 0.1011	682.11
362.64 K, 7000 kPa, x2 = 0.4963	688.09
362.64 K, 7000 kPa, x2 = 0.9014	715.07
362.64 K, 8000 kPa, x2 = 0.1011	683.24
362.64 K, 8000 kPa, x2 = 0.4963	689.28
362.64 K, 8000 kPa, x2 = 0.9014	716.3
362.64 K, 9000 kPa, x2 = 0.1011	684.33
362.64 K, 9000 kPa, x2 = 0.4963	690.44
362.64 K, 9000 kPa, x2 = 0.9014	717.55
362.64 K, 10000 kPa, x2 = 0.1011	685.43
362.64 K, 10000 kPa, x2 = 0.4963	691.61
362.64 K, 10000 kPa, x2 = 0.9014	718.74
